Entries after “also recorded” stand apart in the source; their conditions may differ. Where two headings read alike, the source gives them in different places.

Assay [1] relates to T cells of spleen and mesenteric lymph nodes. The experiment in a line: In vivo acute T cell activation (αCD3) in spleen and MLN. Further details: species or system mice. The conditions noted are these: administered with αCD3 at 0 and 48 hrs.
Description: After 52 additional hours, the spleens were harvested and homogenized. Cells were plated, stimulated with PMA/lonomycin, stained for the indicated T cell markers, and subjected to FACS analysis. The graphs show the % IFN-γ+ CD4+ cells (FIG. 26A), the % IFN-γ+ CD4+ CD44^low cells (FIG. 26B), and the % IFN-γ+ CD4+ CD44^high cells (FIG. 26C) resulting from the various treatments. […] The graphs show the % IFN γ+ CD4+ cells (FIG. 27A), the % IFN γ+ CD4+ CD44low cells (FIG. 27B), and the % IFN γ+ CD4+ CD44high cells (FIG. 27C) resulting from the various treatments.
Fifteen μg of αCD3 (BioXcell clone 145-2C11) was administered via intra-peritoneal injection at 0 and 48 hours. […] At 52 hours, spleen and mesenteric lymph nodes were isolated and plated individually at a concentration of 1×10^6 cells/well with RPMI media supplemented with 2-mercaptoethanol, gentamicin, penicillin, and streptomycin+10% FCS (all from Life Technologies) in a 96-well round bottom plate (Falcon). Cells were immediately stimulated for 4 hours and stained. Specifically, for the last four hours of culture, cells were treated with golgi plug (BD), PMA and ionomycin (both from Sigma-Aldrich).
The subject of assay [2] is TGF-β receptor / pSMAD2/3. The experiment in a line: TGF-β receptor expression and SMAD2/3 activity. Type of assay: cell-based. As to the method:
Indole and 5-HI were assessed for impact on TGF-β receptor expression and SMAD2/3 activity. […] Indole and 5-HI were also assessed for impact on IL-6 receptor levels and subsequent STAT3 activity.

The test system of assay [3] is naïve T cells obtained from humans. Description: Skewing of naïve T cells obtained from humans. The class given is cell-based.
Another assay concerns Th17 transfer colitis. The experiment in a line: Th17 transfer colitis murine model. The class given is in vivo, Rag-null mice. The method, then: Finally, the presentation describes a study of the effects of an indole-induced iTreg skew on the course of colitis in a Th17 transfer colitis murine model. […] Briefly, naïve T-cells (CD4+CD25−) were cultured in vitro with cytokines to skew function towards a Th17 phenotype, in the presence of indole or 5-HI, or not. The skewed cultures were transferred to Rag-null mice (lack T- and B-lymphocytes); control mice received no T-cells. Mice were monitored for weight loss (as a measure of inflammation) over several weeks and assessed at indicated timepoints for T-cell phenotype.
The body weight of the mice was monitored from the time of cell transfer to the end point of day 49. […] Next, the Treg, Th17, and Th1 differentiation was assessed in cells obtained from the mesenteric lymph nodes (MLN) of mice administered directly with indole, 5-HI and control. These cells were determined/assayed by FACS for phenotype directly ex vivo from mice that were treated as in FIG. 28.

The test system of the next assay is CD4+ CD25− naïve T cells. The experiment in a line: In vitro naïve T cell differentiation, Th1-skew (IFN-γ+). Type of assay: cell-based, C57BL/6 mice. The conditions noted are these: Th1 skewing conditions. As to the method: When naïve CD4+ CD25− cells were cultured 72 hours in αCD3/28 coated wells with Th0-, Th1- or Th2-skew cytokines and indole or solvent control, followed by stimulation with PMA, Ionomycin and Golgi Plug for the last 5 hours of culture, no effect on the % of Th1 and Th2 cells was observed (in contrast to the significant effect that indole has on Treg and Th17 cells; see FIGS. 2A and 2B).
CD4+ CD25− T cells were isolated to high purity (>98%) from the pooled spleen and mesenteric lymph nodes of C57BL/6 mice (Jackson Labs) with a BD FACS Aria II flow cytometer. Fc Block (BD), αCD4-efluor450 (eBioscience clone GK1.5) and αCD25-PECy7 (eBioscience clone PC61.5) antibodies were used for staining before sorting.
For Th1-skew: 5 ng/mL IL-12 (Peprotech cat. #210-12) and 10 µg/mL αIL-4 (BioXCell clone 11B11) were added to culture. For Th2-skew: 10 ng/mL IL-4 (Peprotech) and 10 μg/mL αIFN-γ (BioXCell clone R4-6A2) were added to culture. For Th17-skew: 10 ng/mL IL-6 (Peprotech), 5 ng/mL IL-23 (R&D), 0.5 ng/mL TGF-β (Peprotech), 10 μg/mL al-4 (BioXCell clone 11B11), and 10 μg/mL αIFN-γ (BioXCell clone R4-6A2) were added to culture. For Treg-skew: 2 ng/mL TGF-β (Peprotech) and 100 U/mL IL-2 (Roche) were added to culture. Sodium Propionate, sodium acetate, sodium butyrate and sodium chloride (all from Sigma-Aldrich) were solubilized in media and added to culture. Indole was solubilized in DMF (both from Sigma-Aldrich) at 2M and brought to final concentration in media. MGCD0103 (Selleck Chemicals) was solubilized in DMF at 2 mM and brought to final concentration in media. A 0.05% DMF solvent control was used for all experiments.

The target in assay [4] is T1, aryl hydrocarbon receptor (AhR) (Homo sapiens, UniProt P35869).
T1 sequence (P35869 11-848): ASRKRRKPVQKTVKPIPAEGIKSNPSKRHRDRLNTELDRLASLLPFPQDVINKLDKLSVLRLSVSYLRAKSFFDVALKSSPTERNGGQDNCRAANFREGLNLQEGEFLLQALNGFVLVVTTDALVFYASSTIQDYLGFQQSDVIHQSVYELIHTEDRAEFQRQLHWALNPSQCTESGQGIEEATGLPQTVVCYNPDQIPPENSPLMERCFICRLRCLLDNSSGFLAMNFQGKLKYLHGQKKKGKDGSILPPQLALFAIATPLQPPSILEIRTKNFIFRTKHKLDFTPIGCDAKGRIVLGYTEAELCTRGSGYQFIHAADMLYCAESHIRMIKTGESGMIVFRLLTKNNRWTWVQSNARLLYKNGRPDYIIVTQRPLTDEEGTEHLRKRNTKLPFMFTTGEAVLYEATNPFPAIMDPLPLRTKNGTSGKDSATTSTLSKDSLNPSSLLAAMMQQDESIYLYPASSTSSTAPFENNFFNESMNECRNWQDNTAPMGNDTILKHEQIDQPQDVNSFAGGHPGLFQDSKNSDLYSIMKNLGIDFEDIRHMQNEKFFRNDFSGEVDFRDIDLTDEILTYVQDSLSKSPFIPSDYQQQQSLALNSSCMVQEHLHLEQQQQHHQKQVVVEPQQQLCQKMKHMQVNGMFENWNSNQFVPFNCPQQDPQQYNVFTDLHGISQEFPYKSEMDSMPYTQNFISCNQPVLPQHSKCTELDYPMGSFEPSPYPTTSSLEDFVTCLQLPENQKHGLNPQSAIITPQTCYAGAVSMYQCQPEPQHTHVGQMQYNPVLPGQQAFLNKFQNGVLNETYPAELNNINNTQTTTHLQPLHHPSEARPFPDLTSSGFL
The conditions noted are these: intestinal epithelial cells; Jin et al. 2014; cited from earlier work.

Another assay relates to FoxP3+ cells. Description: Homing markers (α4β7, CD62L) on iTreg cells.
The mark [5] stands for this setting: MLN, D15 and D45, by the end point.

Description for iTregs: For example, TDMM- and control-induced Treg cultures from CD4+ CD25− GFP− naïve T cells of FOXP3EGFP mice are sorted based on GFP fluorescence. GFP+ cells (˜1×10^6 cells/mL) are cultured in the presence of pro-inflammatory cytokines IL-1, IL-6, IL-21 and IL-23 ±TCR stimulation on an anti-CD3/CD28 mAb coated plate for 24, 48 and 72 hours [Yang, X. O., et al., Immunity 29(1): p. […] Next, the stability (as measured by expression of FOXP3, RORγT, TGF-β, IL-10, IL-35 and IL-17) of TDMM-conditioned Tregs is analyzed compared to control-induced Tregs by ELISA of supernatants or 4 h treatment with Golgi plug (for cytokine staining) and subsequent intracellular staining with fluorophore-conjugated mAbs and flow cytometry.

With `c1ccc2[nH]ccc2c1` [Indole, indole], the “Treg differentiation in vivo (MLN)” value in assay [1] (mesenteric lymph nodes) is on record as “synergizes with butyrate for the induction of Treg cells in vivo; also recorded: can augment Treg development in vivo when administered to the subject directly”. In addition, the “Th1 differentiation in vivo (% IFN-γ+ CD4+ cells, spleen)” value in assay [1] (spleen) is “suppresses butyrate induction of Th1 cells in vivo”. In assay [2] (TGF-β induced, vs 5-HI or DMF control), the “% pSMAD2/3+ cells” value is given as “higher”. The “% TGF-β receptor+ cells” value in assay [2] (vs DMF control) is given as “significantly increase”. Moreover, the FoxP3 expression in the assay with iTregs (control (DMF induced) iTregs in the presence of indole, after TCR stimulation (αCD3/28), without indole 9.3%) worked out at 26.1%; with iTregs (control (DMF induced) iTregs in the presence of indole, first value, before TCR stimulation), 52.8%; with iTregs (indole-induced iTregs cultured three days with 1 mM indole, first value) it was 64.2%; in the assay on iTregs (indole-induced iTregs cultured three days with 1 mM indole, second value, after TCR stimulation), 52.2%; in the assay on iTregs (indole-induced iTregs cultured three days with DMF, first value) it was 63%; in the assay with iTregs (indole-induced iTregs cultured three days with DMF, second value, after TCR stimulation) it was 24.9%. Further, the “skewing effects on Tregs and Th17 cells in human cells” value in assay [3] is listed as “recapitulated on naïve T cells obtained from humans”. Besides, in the assay on Th17 transfer colitis (MLN, D15 and D45), the “Treg differentiation in vivo (% FoxP3+ T cells and FoxP3+ levels, MLN)” value is given as “induced early differentiation of Treg differentiation in vivo”. In addition, in the assay on Th17 transfer colitis (setting [5]), the “Th1 differentiation in vivo (% INF-γ+ T cells, Th1/Treg balance, MLN)” value is “suppresses Th1 differentiation in vivo”. Further, the “Th17 differentiation in vivo (% IL-17+ T cells, Th17/Treg balance, MLN)” value with Th17 transfer colitis (setting [5]) was “suppresses Th17 differentiation in vivo”. In addition, the “weight change (% from starting weight)” value with Th17 transfer colitis (mice receiving conditioned Th17 T cells, around day 43, end point day 49) is given as “increase in body weight”. The “Th17 transfer colitis in vivo (overall)” value with Th17 transfer colitis (mouse, in vivo) was “inhibits the Th17 transfer colitis in vivo”. Further, the “% IFN-γ+ cells, indole combined with butyrate” value with CD4+ CD25− naïve T cells (regardless of 5-HI presence) is listed as “the % IFN-γ+ cells decreases”. Also, in the assay with CD4+ CD25− naïve T cells (vs 5-HI alone), the “% IFN-γ+ cells, indole combined with 5-HI” value is recorded as “negated when 5-HI is combined with indole”. In addition, in the assay with CD4+ CD25− naïve T cells (vs solvent control), the “effect on % Th1 cells (IFN-γ+)” value is “no effect; also recorded: did not influence the development of Th1 and Th2 cells; also recorded: did not affect the Th1 skewing of Th1 cells”. Also, the AhR agonist/antagonist activity result in assay [4] was “acts as both an agonist and antagonist”. The “% of α4β7+ in FoxP3+ cells” value in the assay with FoxP3+ cells (indole alone) is reported as “increases the % of α4β7+ in FoxP3+ cells”; in the assay with FoxP3+ cells (indole combined with retinoic acid (RA)) it was “amplified when combined with retinoic acid (RA)”. In addition, the “% α4β7+ on iTreg cells” value with FoxP3+ cells (indole with acetate, propionate or butyrate at multiple concentrations) is “increases α4β7 in the presence of SCFAs, except for high levels of butyrate”. Further, the “CD62L+ on FoxP3+ cells” value with FoxP3+ cells (with and without retinoic acid (RA)) is “increase of CD62L+ on FoxP3+ cells with and without combination with retinoic acid (RA)”.

(Values after patent US20190032014A1, “USING MICROBIOTA METABOLITES TO DIFFERENTIATE NAÏVE T-CELLS AND RELATED METHODS TO INDUCE OR PREVENT INFLAMMATORY CONDITIONS” (THE TEXAS A&M UNIVERSITY SYSTEM, priority 2016, published 2019).)
